# Laboratory results reported in patent US20180169100A1, “Cancer Stem Cell Targeting Compounds” (Godavari Biorefineries Limited, priority 2014, published 2018).
# Experiments:
# Format in all cases: cell-based
# [1] = system: CD44 population of PC3 cells; test: Flow cytometry study, CD44/CD24 staining; details: PC3 cells exposed to IC25 drug conc. for 48 hrs; untreated 85.61% cells CD44
# Description: For Flow cytometry assay the PC3 cancer cells (0.35×106) were cultured in Dulbecco's Modified Eagle's medium (DMEM) with 10% Fetal Bovine Serum (F.B.S) in 60 mm tissue culture plates for 24 hrs in 5% CO2 at 37° C. Cells were then exposed to IC25 drug conc. of Cisplatin in duplicates. Similarly other sets of cells were treated with IC25 drug conc. of Ethyl-5,6-dimethyl-4-(piperidin-1-yl)thieno[2,3-d]pyrimidine for 48 hrs. and incubated in 5% CO2 at 37° C. for 48 hrs. Appropriate controls that is growth control (cells+DMEM medium) and solvent control (cells+control DMEM medium+DMSO) and medium control (DMEM) were also kept along with the experimental sets. After 48 hrs the cells were observed under the microscope, trypsinised, washed with Dulbecco's phosphate-buffered saline (D.P.B.S.) 50 μl of cells were taken for each set and 5 μl of each of the CD44-PE labeled and CD24-FITC labeled antibodies were added. The sets were incubated for 45 mins at 4° C. for proper binding of antibodies. After incubation the cells were washed with 200 μl of D.P.B.S by centrifugation. The supernatant was discarded and the cells were finally suspended in 300 μl of FACS buffer (4% Fetal Bovine Serum in D.P.B.S). Samples were kept at 4° C. in dark till they were acquired on FACS. Acquisition was done on BD-FACS Accuri C6.
# [2] = system: CD44 population of DU145 cells; test: Flow cytometry study, CD44/CD24 staining; details: DU145 cells exposed to IC25 drug conc. for 48 hrs; untreated 70.18% cells CD44
# MDAMB231 = test: In vitro colorimetric cell death assay (MTT); details: MDAMB231 breast cancer cell line, 48 hours with compound, read-out: IC 50 Value
# Description: (§1) For assessing cell viability in vitro colorimetric cell death assay was carried out where the cells were grown in two-dimensional surface as follows. Cancer cells with plating efficiency as mentioned herein below for respective cell lines were plated in a 96 well plate. The plate was incubated for 24 hours in a 5% CO2 atmosphere at 37 degrees Celsius, a range of concentrations from 10^−3 M to 10^−6 M of the compound Ethyl-5,6-dimethyl-4-(piperidin-1-yl)thieno[2,3-d]pyrimidine was added to the wells, the plates were incubated further for 48 hours in a 5% CO2 atmosphere, the plate was centrifuged twice at 3000 rpm for 3 minutes, the supernatant fluid was discarded, 100 uL of 0.5 mg/mL 3-(4,5-Dimethylthiazol-2-yl)-2,5-Diphenyltetrazolium Bromide (MTT) solution was added and the plate was incubated for 4 hours in a 5% CO2 atmosphere at 37 degrees Celsius. The plate was then centrifuged twice at 3000 rpm for 3 minutes, supernatant was aspirated very carefully, 200 uL Dimethyl sulfoxide (DMSO) was added to each well to solubilize MTT crystals and mixed well by shaking the plate, the plate was incubated for 10 minutes in a 5% CO2 atmosphere at 37 degrees Celsius, the plate was placed on the shaker of an ELISA plate reader and the absorbance at 570 nm was measured, the percentage of viable cells remaining was calculated by first subtracting the background absorbance then comparing to the absorbance of a non-drug-treated cell sample, and the results were plotted on a graph to determine the IC50 for the compound Ethyl-5,6-dimethyl-4-(piperidin-1-yl)thieno[2,3-d]pyrimidine which was calculated by regression analysis.
# LNCaP = test: In vitro colorimetric cell death assay (MTT); details: LNCaP prostate cancer cell line, 48 hours with compound, read-out: IC 50 Value
# Description: as §1
# MCF-7 = test: In vitro colorimetric cell death assay (MTT); details: MCF-7 breast cancer cell line, 48 hours with compound, read-out: IC 50 Value
# Description: as §1
# DU145 = test: In vitro colorimetric cell death assay (MTT); details: DU145 prostate cancer cell line, 48 hours with compound, read-out: IC 50 Value
# Description: as §1
# SiHa = test: In vitro colorimetric cell death assay (MTT); details: SiHa cervical cancer cell line, 48 hours with compound, read-out: IC 50 Value
# Description: as §1
# HeLa = test: In vitro colorimetric cell death assay (MTT); details: HeLa cervical cancer cell line, 48 hours with compound, read-out: IC 50 Value
# Description: as §1
# Colo320 = test: In vitro colorimetric cell death assay (MTT); details: Colo320 colon cancer cell line, 48 hours with compound, read-out: IC 50 Value
# Description: as §1
# Hep3B = test: In vitro colorimetric cell death assay (MTT); details: Hep3B hepatic cancer cell line, 48 hours with compound, read-out: IC 50 Value
# Description: as §1
# Bu25tk = test: In vitro colorimetric cell death assay (MTT); details: Bu25tk cervical cancer cell line, 48 hours with compound, read-out: IC 50 Value
# Description: as §1
# T47D = test: In vitro colorimetric cell death assay (MTT); details: T47D breast cancer cell line, 48 hours with compound, read-out: IC 50 Value
# Description: as §1
# PC3 = test: In vitro colorimetric cell death assay (MTT); details: PC3 prostate cancer cell line, 48 hours with compound, read-out: IC 50 Value
# Description: as §1
# L929 = test: In vitro colorimetric cell death assay (MTT); details: L929 fibroblast cancer cell line, 48 hours with compound, read-out: IC 50 Value
# Description: as §1
# primary spheres of PC3 = test: 3D Primary Sphere Assay; details: GC 120(±10), GCD 103(±9)
# Description: (§2) The ability of cancer stem cells to form spheres in a serum free media was determined by 3D Primary Sphere Assay, where the spheres were in a suspended form. Through this assay the potency of the compound Ethyl-5,6-dimethyl-4-(piperidin-1-yl)thieno[2,3-d]pyrimidine to kill cancer stem cells in comparison to the standard chemotherapeutic drug such as Cisplatin was evaluated as follows. The Cells were grown in three dimensions on a plastic substrate, harvested in suspension in serum-free media, then the cells in the sample were trypsinised and a single cell suspension was formed by passing through a cell strainer. The cells were diluted according to the predetermined plating efficiency for the cell line being studied by suspending the cells in stem cell culture medium. 100 uL of this suspension was added into each well of a 96 well suspension plate, and the plate was incubated at 37 degrees Celsius in 5% CO2 atmosphere for 24 hours, then 2 uL of appropriate concentrations of the drugs were added into each respective well along with 100 uL of stem cell culture medium, and the plates incubated at 37 degrees Celsius under 5% CO2 atmosphere for 72 hours. 2.5 uL of the appropriate drug concentration was added to each respective well along with 50 uL of stem cell culture medium and the plates were incubated at 37 degrees Celsius under 5% CO2 atmosphere for 72 hours. 3 uL of the appropriate concentration of the compound as mentioned below was added to each respective well along with 50 uL of stem cell culture medium, incubated at 37 degrees Celsius under 5% CO2 atmosphere for 72 hours, the spheres formed were observed under a microscope, counted and scored by size. Results of the in vitro 3D sphere forming stem cell assay were set forth in a tabular manner. […] GC refers to a growth control performed in the absence of drug or solvent (DMSO). GCD refers to a growth control performed in the absence of drug, but in the presence of DMSO.
# [3] = system: primary spheres of MDA MB231; test: 3D Primary Sphere Assay; details: GC 92(±7), GCD 83(±6)
# Description: as §2
# primary spheres of DU145 = test: 3D Primary Sphere Assay; details: GC 49(±5), GCD 41(±4)
# Description: as §2
compound,measurement,setting,value
N.N.[Cl][Pt][Cl] [Cisplatin],effect on CD44 population,[1],did not have much effect
same,effect on CD44 population,[2],did not have much effect
same,IC50,MDAMB231,48.4 µM
same,IC50,LNCaP,52.5 µM
same,IC50,MCF-7,29.2 µM
same,IC50,DU145,31.6 µM
same,IC50,SiHa,35.5 µM
same,IC50,HeLa,33.9 µM
same,IC50,Colo320,38.3 µM
same,IC50,Hep3B,37.6 µM
same,IC50,Bu25tk,59.3 µM
same,IC50,T47D,58.9 µM
same,IC50,PC3,11.2 µM
same,IC50,L929,29 µM
same,total number of spheres formed,"primary spheres of PC3; PC3, final conc. 1.25 μM",109(±6)
same,total number of spheres formed,"primary spheres of PC3; PC3, final conc. 12.5 μM",107(±9)
same,total number of spheres formed,"primary spheres of PC3; PC3, final conc. 125 μM",88(±6)
same,total number of spheres formed,primary spheres of PC3; PC3,74(±7)
same,total number of spheres formed,"[3]; MDA MB231, final conc. 1.25 μM",76(±8)
same,total number of spheres formed,"[3]; MDA MB231, final conc. 12.5 μM",52(±6)
same,total number of spheres formed,"[3]; MDA MB231, final conc. 125 μM",39(±3)
same,total number of spheres formed,[3]; MDA MB231,25(±5)
same,total number of spheres formed,"primary spheres of DU145; DU145, final conc. 1.25 μM",48(±5)
same,total number of spheres formed,"primary spheres of DU145; DU145, final conc. 12.5 μM",41(±5)
same,total number of spheres formed,"primary spheres of DU145; DU145, final conc. 125 μM",23(±4)
same,total number of spheres formed,"primary spheres of DU145; DU145, final conc. 1250 μM",12(±3)
